Measured values taken from the NIST ThermoML archive (doi:10.1021/je034087q).

Test: xn = mol fraction of the nth substance listed
Settings: Fluid (supercritical or subcritical phases)

CC(C)=O [acetone] + O=C=O
Settings | mass density [kg/m3]
335.15 K, 10350 kPa, x2 = 0.909 | 583
335.15 K, 10420 kPa, x2 = 0.909 | 589
335.15 K, 10500 kPa, x2 = 0.909 | 593
335.15 K, 10590 kPa, x2 = 0.909 | 599
335.15 K, 10680 kPa, x2 = 0.909 | 604
335.15 K, 10780 kPa, x2 = 0.909 | 611
335.15 K, 10890 kPa, x2 = 0.909 | 616
335.15 K, 11020 kPa, x2 = 0.909 | 623
335.15 K, 11150 kPa, x2 = 0.909 | 628
335.15 K, 11280 kPa, x2 = 0.909 | 635
335.15 K, 11440 kPa, x2 = 0.909 | 640
335.15 K, 11600 kPa, x2 = 0.909 | 648
335.15 K, 11790 kPa, x2 = 0.909 | 653
335.15 K, 12010 kPa, x2 = 0.909 | 661
335.15 K, 12240 kPa, x2 = 0.909 | 667
335.15 K, 12460 kPa, x2 = 0.909 | 675
335.15 K, 12750 kPa, x2 = 0.909 | 681
335.15 K, 13080 kPa, x2 = 0.909 | 691
335.15 K, 13400 kPa, x2 = 0.909 | 697
335.15 K, 13770 kPa, x2 = 0.909 | 706
335.15 K, 14150 kPa, x2 = 0.909 | 711
335.15 K, 14600 kPa, x2 = 0.909 | 721
336.35 K, 9960 kPa, x2 = 0.902 | 531
336.35 K, 10000 kPa, x2 = 0.902 | 535
336.35 K, 10030 kPa, x2 = 0.902 | 538
336.35 K, 10080 kPa, x2 = 0.902 | 542
336.35 K, 10110 kPa, x2 = 0.902 | 545
336.35 K, 10150 kPa, x2 = 0.902 | 547
336.35 K, 10190 kPa, x2 = 0.902 | 551
336.35 K, 10230 kPa, x2 = 0.902 | 555
336.35 K, 10260 kPa, x2 = 0.902 | 558
336.35 K, 10310 kPa, x2 = 0.902 | 561
336.35 K, 10360 kPa, x2 = 0.902 | 566
336.35 K, 10390 kPa, x2 = 0.902 | 569
336.35 K, 10450 kPa, x2 = 0.902 | 573
336.35 K, 10540 kPa, x2 = 0.902 | 579
336.35 K, 10610 kPa, x2 = 0.902 | 583
336.35 K, 10710 kPa, x2 = 0.902 | 590
336.35 K, 10810 kPa, x2 = 0.902 | 595
336.35 K, 10910 kPa, x2 = 0.902 | 602
336.35 K, 11020 kPa, x2 = 0.902 | 606
336.35 K, 11100 kPa, x2 = 0.902 | 611
336.35 K, 11200 kPa, x2 = 0.902 | 616
336.35 K, 11320 kPa, x2 = 0.902 | 620
336.35 K, 11420 kPa, x2 = 0.902 | 625
336.35 K, 11570 kPa, x2 = 0.902 | 631
336.35 K, 11700 kPa, x2 = 0.902 | 638
336.35 K, 11790 kPa, x2 = 0.902 | 641
336.35 K, 11950 kPa, x2 = 0.902 | 645
336.35 K, 12080 kPa, x2 = 0.902 | 649
336.35 K, 12210 kPa, x2 = 0.902 | 654
336.35 K, 12400 kPa, x2 = 0.902 | 659
336.35 K, 12570 kPa, x2 = 0.902 | 663
336.35 K, 12710 kPa, x2 = 0.902 | 668
336.35 K, 12940 kPa, x2 = 0.902 | 673
336.35 K, 13140 kPa, x2 = 0.902 | 678
336.35 K, 13320 kPa, x2 = 0.902 | 684
336.35 K, 13580 kPa, x2 = 0.902 | 688
336.35 K, 13900 kPa, x2 = 0.902 | 694
336.35 K, 14180 kPa, x2 = 0.902 | 701
336.35 K, 14450 kPa, x2 = 0.902 | 706
336.35 K, 14700 kPa, x2 = 0.902 | 710
336.35 K, 14920 kPa, x2 = 0.902 | 715
338.15 K, 10080 kPa, x2 = 0.902 | 511
338.15 K, 10110 kPa, x2 = 0.902 | 515
338.15 K, 10180 kPa, x2 = 0.902 | 520
338.15 K, 10230 kPa, x2 = 0.902 | 524
338.15 K, 10280 kPa, x2 = 0.902 | 529
338.15 K, 10340 kPa, x2 = 0.902 | 533
338.15 K, 10380 kPa, x2 = 0.902 | 538
338.15 K, 10430 kPa, x2 = 0.902 | 542
338.15 K, 10500 kPa, x2 = 0.902 | 548
338.15 K, 10560 kPa, x2 = 0.902 | 552
338.15 K, 10640 kPa, x2 = 0.902 | 558
338.15 K, 10710 kPa, x2 = 0.902 | 563
338.15 K, 10780 kPa, x2 = 0.902 | 569
338.15 K, 10860 kPa, x2 = 0.902 | 573
338.15 K, 10910 kPa, x2 = 0.902 | 581
338.15 K, 10980 kPa, x2 = 0.902 | 584
338.15 K, 11080 kPa, x2 = 0.902 | 590
338.15 K, 11200 kPa, x2 = 0.902 | 595
338.15 K, 11280 kPa, x2 = 0.902 | 600
338.15 K, 11350 kPa, x2 = 0.902 | 603
338.15 K, 11420 kPa, x2 = 0.902 | 606
338.15 K, 11510 kPa, x2 = 0.902 | 610
338.15 K, 11590 kPa, x2 = 0.902 | 615
338.15 K, 11630 kPa, x2 = 0.902 | 616
338.15 K, 11710 kPa, x2 = 0.902 | 619
338.15 K, 11790 kPa, x2 = 0.902 | 622
338.15 K, 11880 kPa, x2 = 0.902 | 627
338.15 K, 11950 kPa, x2 = 0.902 | 629
338.15 K, 12040 kPa, x2 = 0.902 | 632
338.15 K, 12110 kPa, x2 = 0.902 | 634
338.15 K, 12240 kPa, x2 = 0.902 | 640
338.15 K, 12330 kPa, x2 = 0.902 | 642
338.15 K, 12460 kPa, x2 = 0.902 | 646
338.15 K, 12570 kPa, x2 = 0.902 | 651
338.15 K, 12700 kPa, x2 = 0.902 | 654
338.15 K, 12880 kPa, x2 = 0.902 | 659
338.15 K, 13010 kPa, x2 = 0.902 | 663
338.15 K, 13200 kPa, x2 = 0.902 | 668
338.15 K, 13320 kPa, x2 = 0.902 | 671
338.15 K, 13480 kPa, x2 = 0.902 | 675
338.15 K, 13710 kPa, x2 = 0.902 | 680
338.15 K, 13860 kPa, x2 = 0.902 | 684
338.15 K, 14080 kPa, x2 = 0.902 | 689
338.15 K, 14300 kPa, x2 = 0.902 | 693
338.15 K, 14560 kPa, x2 = 0.902 | 699
338.15 K, 14780 kPa, x2 = 0.902 | 700
338.15 K, 15010 kPa, x2 = 0.902 | 705
